The target in experiment [1] is T1, progesterone receptor (PR) (Homo sapiens, UniProt P06401).
T1 construct: endogenous in cells; host or cells: T47D cells
T1 sequence (P06401 1-933): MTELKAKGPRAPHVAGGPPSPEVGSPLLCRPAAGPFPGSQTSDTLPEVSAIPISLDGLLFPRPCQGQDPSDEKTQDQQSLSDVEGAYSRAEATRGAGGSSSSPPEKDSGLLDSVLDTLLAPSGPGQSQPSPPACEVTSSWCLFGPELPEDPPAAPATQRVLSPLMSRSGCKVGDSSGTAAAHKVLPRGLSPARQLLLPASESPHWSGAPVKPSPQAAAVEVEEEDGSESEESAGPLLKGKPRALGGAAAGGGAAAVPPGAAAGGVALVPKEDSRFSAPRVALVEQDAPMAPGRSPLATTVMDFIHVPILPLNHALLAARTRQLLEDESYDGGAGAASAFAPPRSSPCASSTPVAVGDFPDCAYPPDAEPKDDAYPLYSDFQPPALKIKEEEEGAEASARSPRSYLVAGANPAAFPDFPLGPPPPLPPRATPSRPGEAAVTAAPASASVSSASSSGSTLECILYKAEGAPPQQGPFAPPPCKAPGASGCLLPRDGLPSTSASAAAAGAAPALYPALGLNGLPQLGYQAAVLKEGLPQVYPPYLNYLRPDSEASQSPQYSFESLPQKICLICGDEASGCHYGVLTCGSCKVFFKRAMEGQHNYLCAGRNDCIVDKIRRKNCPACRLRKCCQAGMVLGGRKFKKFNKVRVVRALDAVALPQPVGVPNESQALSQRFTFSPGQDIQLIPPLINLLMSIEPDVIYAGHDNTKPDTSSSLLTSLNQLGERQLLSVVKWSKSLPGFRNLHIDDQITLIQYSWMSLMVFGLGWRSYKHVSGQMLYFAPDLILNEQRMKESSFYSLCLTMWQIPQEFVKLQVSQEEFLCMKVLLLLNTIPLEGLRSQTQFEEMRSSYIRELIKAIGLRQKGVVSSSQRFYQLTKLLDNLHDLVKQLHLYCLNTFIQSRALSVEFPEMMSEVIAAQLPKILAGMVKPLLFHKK
Description: T47D cell alkaline phosphatase assay. Type of experiment: cell-based. The settings on record: for inhibition at 3 µM: T47D, read-out: Alk. Phos. % inh @ 3 μM; for IC50: read-out: Alk. Phos. IC50. How it is done: (i) Purpose: To identify progestins or antiprogestins by determining a compound's effect on alkaline phosphatase activity in T47D cells.
A. Reagents • (i) Culture Medium: • DMEM:F12 (1:1) (GIBCO, BRL) supplemented with 5% (v/v) charcoal stripped fetal bovine serum (not heat-inactivated), 100U/mL penicillin, […] streptomycin, and 2 mM the GlutaMax™ reagent (GIBCO, BRL). • (ii) Alkaline phosphatase assay buffer: • I. 0.1 M Tris-HCl, pH 9.8, containing 0.2% the Triton™ X-100 reagent; • II. 0.1 M Tris-HCl, pH 9.8 containing 4 mM p-nitrophenyl phosphate (Sigma).
B. Cell Culture and Treatment • Frozen T47D cells were thawed in a 37° C. water bath and diluted to 280,000 cells/mL in culture medium. To each well in a 96-well plate (Falcon, Becton Dickinson Labware), 180 ? L of diluted cell suspension was added. Twenty ? L of reference or test compounds diluted in the culture medium was then added to each well. […] The cells were incubated at 37° C. in a 5% CO2/humidified atmosphere for 24 hours. • Note: For high throughput screening, one concentration of each compound was tested at 0.3 mg/mL. Based on an average molecular weight of 300 g/mol for the compounds in the library, the concentration was approximately 1 mM.
C. Alkaline Phosphatase Enzyme Assay • At the end of treatment, the medium was removed from the plate. Fifty ? L of assay buffer I was added to each well. The plates were shaken in a titer plate shaker for 15 minutes. Then 150 ? L of assay buffer II was added to each well.
Square root-transformed data were used for analysis of variance and nonlinear dose response curve fitting for both agonist and antagonist modes. Huber weighting was used to downweight the effects of outliers. EC50 or IC50 values were calculated from the retransformed values. JMP software (SAS Institute, Inc.) was used for both one-way analysis of variance and non-linear dose response analyses in both single dose and dose response studies.

Experiment [2] concerns rat uterine decidualization. Description: Rat decidualization assay. Type of experiment: in vivo. The settings on record: for Estimated average EC50: s.c., average of dose-response curves, rat decidual response. How it is done:
C. […] The animals are treated once daily for seven days.
Uteri are removed and trimmed of fat.
Decidual response: [(D−C)/C]×100%

The subject of another experiment is T47D cells. Kind of experiment: T47D cell proliferation assay (BrdU incorporation). Type of experiment: cell-based. How it is done: (a) Objective: Determination of progestational and antiprogestational potency by using a cell proliferation assay in T47D cells. A compound's effect on DNA synthesis in T47D cells is measured.
A. Reagents • (i) Growth medium: DMEM:F12 (1:1) (GIBCO, BRL) supplemented with 10% (v/v) fetal bovine serum (not heat-inactivated), 100U/mL penicillin, […] streptomycin, and 2 mM GlutaMax™ media (GIBCO, BRL). • (ii) Treatment medium: Minimum Essential Medium (MEM) (#51200-038GIBCO, BRL) phenol red-free supplemented with 0.5% charcoal stripped fetal bovine serum, 100U/mL penicillin, […] streptomycin, and 2 mM GlutaMax™ media (GIBCO, BRL).
B. Cell Culture • Stock T47 D cells are maintained in growth medium. […]
C. Cell Proliferation Assay • At the end of BrdU labeling, the medium is removed and BrdU incorporation is measured using a cell proliferation ELISA kit (#RPN 250, Amersham Life Science) according to manufacturer's instructions. […] L of 1 M sulfuric acid is added to each well to stop color reaction and optical density is read in a plate reader at 450 nm within 5 minutes.
D. Analysis of Results • Square root-transformed data are used for analysis of variance and nonlinear dose response curve fitting for both agonist and antagonist modes. […] EC50 or IC50 values are calculated from the retransformed values. […]
Background: Uptake of a labelled nucleoside into DNA is a usual measure of proliferation.

Where “and” joins values, the source holds several entries; their conditions need not be identical. Equal entries are not always repeated.

With `COc1ccc(-c2ccc3c(c2)C(C)(C)C/C3=N\O)cc1` [Example 35, (1E)-5-(4-methoxyphenyl)-3,3-dimethylindan-1-one oxime], in experiment [1], the inhibition at 3 µM worked out at 63%.

For the compound `C#C[C@]1(O)CC[C@H]2[C@@H]3CCC4=CC(=O)CC[C@@H]4[C@H]3C(=C)C[C@@]21CC` [3-Ketodesogestrel], in experiment [2], the “Estimated average EC50” value is given as 0.10 mg/kg. For the compound `CC1(C)C/C(=N\O)c2ccc(-c3cccc(Cl)c3)cc21` [Example 36, (1E)-5-(3-chlorophenyl)-3,3-dimethylindan-1-one oxime], the inhibition at 3 µM in experiment [1] was found to be 70%.

The term IC50 denotes the concentration needed to halve the response being measured. For the compound `N#Cc1cccc(-c2ccc3c(c2)CC/C3=N\O)c1` [Example 6, 3-[(1E)-1-(hydroxyimino)-2,3-dihydro-1H-inden-5-yl]benzonitrile], the IC50 in experiment [1] was approximately 3000 nM. As to `CC1(C)C/C(=N\O)c2ccc(-c3ccccc3Cl)cc21` [Example 40, (1E)-5-(2-chlorophenyl)-3,3-dimethylindan-1-one oxime], the inhibition at 3 µM in experiment [1] worked out at 62%. In the case of `CC#C[C@]1(O)CC[C@H]2[C@@H]3CCC4=CC(=O)CCC4=C3[C@@H](c3ccc(N(C)C)cc3)C[C@@]21C` [RU486], the IC50 in the experiment on T47D cells (half-maximal decrease in 0.1 trimegestone induced BrdU incorporation in T47D cells, individual Exp, read-out: EC50 (Estimated IC50)) is 0.016 nM and 0.018 nM. Besides, in experiment [2] (p.o., half-maximal decrease in EC50 progesterone induced decidual response, individual Exp), the “Estimated IC50” value is 0.21 mg/kg and 0.14 mg/kg. `Cc1cccc(-c2ccc3c(c2)C(C)(C)C/C3=N\O)c1` [Example 37, (1E)-3,3-dimethyl-5-(3-methylphenyl)indan-1-one oxime]: in experiment [1], the inhibition at 3 µM amounted to 65%. Same read-out and setting: with `Cc1ccc(-c2ccc3c(c2)C(C)(C)C/C3=N\O)cc1` [Example 34, (1E)-3,3-dimethyl-5-(4-methylphenyl)indan-1-one oxime] the figure was 68%.

On to `CC1C/C(=N\O)c2ccc(-c3ccc(C#N)n3C)cc21` (stereo not shown) [Example 3, 5-[(1E)-1-(hydroxyimino)-3-methyl-2,3-dihydro-1H-inden-5-yl]-1-methyl-1H-pyrrole-2-carbonitrile], for which, in experiment [1], the IC50 is 65 nM. `CC1(C)C/C(=N\O)c2ccc(-c3cc(Cl)cc(Cl)c3)cc21` [Example 39, (1E)-5-(3,5-dichlorophenyl)-3,3-dimethylindan-1-one oxime]: in experiment [1], the inhibition at 3 µM was 30%. Take `Cn1c(C#N)ccc1-c1ccc2c(c1)CCC/C2=N\O` [Example 15, 5-[(5E)-5-(hydroxyimino)-5,6,7,8-tetrahydronaphthalen-2-yl]-1-methyl-1H-pyrrole-2-carbonitrile]: the IC50 in experiment [1] amounted to 32.6 nM. For `C#C[C@]1(O)CC[C@H]2[C@@H]3CCC4=CC(=O)CC[C@@H]4[C@H]3CC[C@@]21CC` [Levonorgestrel], the “Estimated average EC50” value in experiment [2] is given as 0.10 mg/kg. For `N#Cc1ccc(-c2ccc3c(c2)CC/C3=N\O)cc1` [Example 7, 4-[(1E)-1-(hydroxyimino)-2,3-dihydro-1H-inden-5-yl]benzonitrile], the IC50 in experiment [1] is approximately 1000 nM. For the compound `CC1(C)C/C(=N\O)c2ccc(-c3ccc(Cl)c(Cl)c3)cc21` [Example 41, (1E)-5-(3,4-dichlorophenyl)-3,3-dimethylindan-1-one oxime], the IC50 in experiment [1] worked out at 456 nM. Take `CC1(C)C/C(=N\O)c2ccc(-c3cccc(Cl)c3Cl)cc21` [Example 42, (1E)-5-(2,3-dichlorophenyl)-3,3-dimethylindan-1-one oxime]: the inhibition at 3 µM in experiment [1] stood at 100%. `COc1cccc(-c2ccc3c(c2)C(C)(C)C/C3=N\O)c1` [Example 38, (1E)-5-(3-methoxyphenyl)-3,3-dimethylindan-1-one oxime]: in experiment [1], the inhibition at 3 µM worked out at 42%. On to `CC1(C)C/C(=N\O)c2ccc(-c3ccc(Cl)cc3)cc21` [Example 33, (1E)-5-(4-chlorophenyl)-3,3-dimethylindan-1-one oxime], for which the inhibition at 3 µM in experiment [1] stood at 100%. As usually defined, the EC50 is the concentration giving half of the maximal effect. Consider `C[C@H](O)C(=O)[C@@]1(C)CC[C@H]2[C@@H]3CCC4=CC(=O)CCC4=C3CC[C@@]21C` [Trimegestone], for which the EC50 in the experiment with T47D cells (half-maximal increase in BrdU incorporation in T47D cells, individual studies (Exp), read-out: Estimated EC50) is 0.017 nM and 0.014 nM and 0.019 nM.
